Measurements from patent US4409210A, “Antibiotic compound” (priority 1982, dated 1983).
Converted amounts (≈) assume the structure as drawn. Where two headings read alike, the source gives them in different places. *1 amine or outer side, *2 acyl side, *3 side chain or, on linkers, in order; H or OH if unused. Where a SMILES comes first, the peptide text is derived from it. Bridges are numbered along the chain shown (N, C = ends). [ ]: non-standard residue; d: D form. ξ: configuration not given here. X2 = CCCCCCCCCCCC(CC(=O)[*:1])O[*:2]; ξAsp(3ξ-OH) = NC(C(=O)O)C(O)C(=O)O; X1 = O=C(C1C(O)CCN1[*:1])[*:2]

Key:
[1] = tested on: Streptococcus pyogenes S-23; assay: MIC, serial two-fold dilution method (aerobic); assay type: cell-based
[2] = tested on: Streptococcus pyogenes Dick; assay: MIC, serial two-fold dilution method (aerobic); assay type: cell-based; conditions: for MIC: read-out: minimum inhibitory concentration (MIC)
[3] = tested on: Streptococcus pneumoniae A15069; assay: MIC, serial two-fold dilution method (aerobic); assay type: cell-based
S. aureus BX-1633 = assay type: in vivo, mice; conditions: Exp. Run No. C-1319, observed 5 days
[4] = tested on: Neisseria meningitidis A20048; assay: MIC, serial two-fold dilution method (aerobic); assay type: cell-based
[5] = tested on: Haemophilus influenzae A9729; assay: MIC, serial two-fold dilution method (aerobic); assay type: cell-based
[6] = tested on: Neisseria gonorrhoeae A15112; assay: MIC, serial two-fold dilution method (aerobic); assay type: cell-based
C. perfringens A9635 = assay type: in vivo, mice; conditions: observed 5 days
S. aureus Smith = assay: Experimental infection of mice, PD50; assay type: in vivo; conditions: observed 5 days
[7] = tested on: Streptococcus pyogenes A9604; assay: MIC, serial two-fold dilution method (aerobic); assay type: cell-based
S. pyogenes A20201 = assay: Experimental infection of mice, PD50; assay type: in vivo; conditions: observed 5 days
E. coli NIHJ = assay: Antibiotic sensitivity, paper disc-agar diffusion method; assay type: cell-based; parameters: key: S (sensitive); R (resistant); I (intermediate); conditions: nutrient agar, 2 day's incubation at 28° C., Difco discs, amount/disc per antibiotic
S. aureus 209P = assay: as above; assay type: cell-based; parameters: key: S (sensitive); R (resistant); I (intermediate); conditions: nutrient agar, 2 day's incubation at 28° C., Difco discs, amount/disc per antibiotic
anaerobic bacteria = assay: MIC summary, anaerobic bacteria; assay type: cell-based
staphylococci = assay: MIC summary, staphylococci; assay type: cell-based; conditions: against staphylococci
[8] = tested on: aerobic gram-negative organisms; assay type: cell-based
[9] = tested on: gram-positive rods and cocci (Clostridium, Peptostreptococcus, Propionibacterium acnes); assay type: cell-based; conditions: various species of Clostridium and Peptostreptococcus and strains of Propionibacterium acnes
S pneumoniae A20759 = assay type: in vivo, mice; conditions: Exp. Run No. C-1176, observed 5 days
[10] = tested on: aerobic and anaerobic gram-positive pathogens; parameters: species or system mice; conditions: mouse
Veillonella species = assay: MIC summary, Veillonella; assay type: cell-based; conditions: gram-negative cocci
streptococci = assay: MIC summary, streptococci; assay type: cell-based; conditions: against streptococci
[11] = tested on: Anaerobic gram-negative rod bacteria, such as Bacteroides and Fusobacterium species; assay: MIC summary, anaerobic gram-negative rods; assay type: cell-based
[12] = Streptococcus pyogenes S-23, GC medium, inoculum 10^6 CFU/ml
[13] = Streptococcus pyogenes Dick, GC medium, inoculum 10^6 CFU/ml
[14] = Streptococcus pneumoniae A15069, GC medium, inoculum 10^6 CFU/ml
[15] = Neisseria meningitidis A20048, GC medium, inoculum 10^6 CFU/ml
[16] = Haemophilus influenzae A9729, GC medium, inoculum 10^6 CFU/ml
[17] = Neisseria gonorrhoeae A15112, GC medium, inoculum 10^6 CFU/ml
[18] = Exp. Run No. C-1318, 2.5 × 10^7 cell/mouse, 11 × LD50, im just before challenge
[19] = Exp. Run No. C-1247, 1.3 × 10^6 cell/mouse, 350 × LD50, im just before challenge
[20] = Exp. Run No. C-1312, 1.3 × 10^6 cell/mouse, 200 × LD50, im just before challenge
[21] = Streptococcus pyogenes A9604, GC medium, inoculum 10^6 CFU/ml
[22] = Exp. Run No. C-1313, 1.3 × 10^2 cell/mouse, 60 × LD50, im just before challenge

| Compound | minimum inhibitory concentration (MIC) [1, 12] [µg/mL] | minimum inhibitory concentration (MIC) [2, 13] [µg/mL] | minimum inhibitory concentration (MIC) [3, 14] [µg/mL] | PD50 (mg/kg, im) (S. aureus BX-1633) [mg/kg] | minimum inhibitory concentration (MIC) [4, 15] [µg/mL] | minimum inhibitory concentration (MIC) [5, 16] [µg/mL] | minimum inhibitory concentration (MIC) [6, 17] [µg/mL] | PD50 (mg/kg, im) (C. perfringens A9635; [18]) [mg/kg] | PD50 (mg/kg, im) (S. aureus Smith; [19]) [mg/kg] | PD50 (mg/kg, im) (S. aureus Smith; [20]) [mg/kg] | minimum inhibitory concentration (MIC) [7, 21] [µg/mL] | PD50 (mg/kg, im) (S. pyogenes A20201; [22]) [mg/kg] | Sensitivity E. coli NIHJ (E. coli NIHJ) | Sensitivity S. aureus 209P (S. aureus 209P) | other results |
| --- | --- | --- | --- | --- | --- | --- | --- | --- | --- | --- | --- | --- | --- | --- | --- |
| Amphomycin | 12.5 | 12.5 | 25 | 4.4 | > 100 | > 100 | > 100 | 7.4 | 9.0 | 3.3 | 12.5 | 3.5 |  |  |  |
| CC[C@H]1OC(=O)[C@H](C)[C@@H](O[C@H]2C[C@@](C)(OC)[C@@H](O)[C@H](C)O2)[C@H](C)[C@@H](O[C@@H]2O[C@H](C)C[C@H](N(C)C)[C@H]2O)[C@](C)(O)C[C@@H](C)C(=O)[C@H](C)[C@@H](O)[C@]1(C)O [Erythromycin] |  |  |  |  |  |  |  |  |  |  |  |  | R | S |  |
| CN[C@H](CC(C)C)C(=O)N[C@H]1C(=O)N[C@@H](CC(N)=O)C(=O)N[C@H]2C(=O)N[C@H]3C(=O)N[C@H](C(=O)N[C@H](C(=O)O)c4cc(O)cc(O)c4-c4cc3ccc4O)[C@H](O)c3ccc(c(Cl)c3)Oc3cc2cc(c3O[C@@H]2O[C@H](CO)[C@@H](O)[C@H](O)[C@H]2O[C@H]2C[C@](C)(N)[C@H](O)[C@H](C)O2)Oc2ccc(cc2Cl)[C@H]1O [Vancomycin] |  |  |  |  |  |  |  |  |  |  |  |  |  |  | MIC ([1]; Streptococcus pyogenes, S23, read-out: minimum inhibitory concentration (MIC)): 0.8 µg/mL (≈ 0.552 µM); MIC ([2]; Streptococcus pyogenes): 0.8 µg/mL (≈ 0.552 µM); MIC ([3]; Streptococcus pneumoniae, A15069, read-out: minimum inhibitory concentration (MIC)): 0.4 µg/mL (≈ 0.276 µM); MIC ([4]; Neisseria meningitidis, A20048, read-out: minimum inhibitory concentration (MIC)): > 100 µg/mL; MIC ([5]; Haemophilus influenzae, A9729, read-out: minimum inhibitory concentration (MIC)): > 100 µg/mL; MIC ([6]; Neisseria gonorrhoeae, A15112, read-out: minimum inhibitory concentration (MIC)): > 100 µg/mL; MIC ([7]; Streptococcus pyogenes, A9604, read-out: minimum inhibitory concentration (MIC)): 0.4 µg/mL (≈ 0.276 µM) |
| CC1(C)S[C@@H]2[C@H](NC(=O)[C@H](N)c3ccccc3)C(=O)N2[C@H]1C(=O)O [Ampicillin] |  |  |  |  |  |  |  |  |  |  |  |  | S | S | MIC ([1]; S23, Streptococcus pyogenes S-23, GC medium, inoculum 10^6 CFU/ml, read-out: minimum inhibitory concentration (MIC)): 0.013 µg/mL (≈ 0.0372 µM); MIC [2, 13]: 0.013 µg/mL (≈ 0.0372 µM); MIC ([3]; Streptococcus pneumoniae A15069, GC medium, inoculum 10^6 CFU/ml, read-out: minimum inhibitory concentration (MIC)): 0.025 µg/mL (≈ 0.0715 µM); MIC ([4]; Neisseria meningitidis A20048, GC medium, inoculum 10^6 CFU/ml, read-out: minimum inhibitory concentration (MIC)): 0.4 µg/mL (≈ 1.14 µM); MIC ([5]; Haemophilus influenzae A9729, GC medium, inoculum 10^6 CFU/ml, read-out: minimum inhibitory concentration (MIC)): 0.8 µg/mL (≈ 2.29 µM); MIC ([6]; Neisseria gonorrhoeae A15112, GC medium, inoculum 10^6 CFU/ml, read-out: minimum inhibitory concentration (MIC)): 0.4 µg/mL (≈ 1.14 µM); MIC ([7]; Streptococcus pyogenes A9604, GC medium, inoculum 10^6 CFU/ml, read-out: minimum inhibitory concentration (MIC)): 0.013 µg/mL (≈ 0.0372 µM) |
| CCCCCCCCCCCC1CC(=O)N2CCCC2C(=O)NC(CO)C(=O)N2CCCC2C(=O)NC(CCCNC(=N)N)C(=O)NC(C(O)C(=O)O)C(=O)NC(CO)C(=O)N2CCC(O)C2C(=O)NC(C(O)C(=O)O)C(=O)O1 (centres unmarked) [Bu-2517] (PSPR[ξAsp(3ξ-OH)]S[X1][ξAsp(3ξ-OH)]; linker N-C via X2; configuration not given here) | 1.6 (≈ 1.42 µM) | 1.6 (≈ 1.42 µM) | 1.6 (≈ 1.42 µM) | 3.6 | > 100 | > 100 | > 100 | 6.8 | 3.3 | 3.3 | 1.6 (≈ 1.42 µM) | 1.5 |  |  | antianaerobic activity, times more potent than amphomycin (anaerobic bacteria): 2-16 times; fold more active than amphomycin (staphylococci): 2-4 fold; activity against aerobic gram-negative organisms [8]: no activity; PD50 (mg/kg, im) (C. perfringens A9635; Exp. Run No. C-1175, 2.5 × 10^7 cell/mouse, 18 × LD50, im just before challenge): 5.5 mg/kg; inhibition of anaerobic gram-positive rods and cocci tested [9]: inhibited all; PD50 (mg/kg, im) (S pneumoniae A20759): 1.9 mg/kg; in vivo activity relative to the potency of amphomycin [10]: equal to up to three times; pH range in which aqueous solution forms a precipitate: 2.4-4.2; inhibition of two strains of Veillonella species (Veillonella species): inhibited at low concentration; fold more active than amphomycin (streptococci): 8-32 fold; PD50 (mg/kg, im) (S. pyogenes A20201; Exp. Run No. C-1174, 1.3 × 10^2 cell/mouse, 30 × LD50, im just before challenge): 1.0 mg/kg; susceptibility of anaerobic gram-negative rod bacteria [11]: generally resistant |
| O=C(N[C@H](CO)[C@H](O)c1ccc([N+](=O)[O-])cc1)C(Cl)Cl [Chloramphenicol] |  |  |  |  |  |  |  |  |  |  |  |  | S | S |  |
